# Results from patent publication US20250074919A1, “Heteroaryl compounds as inhibitors of irak4, compositions and applications thereof” (Accro Bioscience (HK) Limited, priority 2021, published 2025).
# Structures can show the parent of a compound that is named as a salt. Where two headings read alike, the source gives them in different places.
# Biological target: IRAK4 (Homo sapiens (Human), UniProt Q9NWZ3)
# Experiment: Screening the compounds against IRAK4 with ATP (Caliper, FAM-labeled peptide)
# Assay type: biochemical
# Settings: for IC50: read-out: IC50 (nM) (10 μM ATP); for activity, times better than that of the positive control compound CA4948: IRAK4 kinase inhibition relative to CA4948
# Protocol: Prepare Ix kinase base buffer and stop buffer for testing kinases: (1) base buffer: 50 mM HEPES (pH 7.5), 0.0015% Brij-35; (2) stop buffer: 100 mM HEPES (pH 7.5), 0.015% Brij-35, 0.2% Coating Reagent #3, 50 mM EDTA. Then prepare compounds for testing: Dilute the compound to 50× of the final desired highest inhibitor concentration in reaction by 100% DMSO. Transfer 100 μL of this compound dilution to a well in a 96-well plate (source plate).
# Serially dilute the compounds by 3-fold for a total of 10 points. Transfer 10 μL of the compound from the source plate to a new 96-well plate (intermediate plate) and add 90 μL of Ix kinase buffer. Shake the mixture on the intermediate plate for 10 min. Transfer 5 μL of each well from the 96-well intermediate plate to a 384-well plate in duplicates. Add 10 μL of 2.5× enzyme solution to each well of the 384-well assay plate and incubate at room temperature for 10 min. Add 10 μL, of 2.5×FAM-labeled peptide and ATP solution and incubate at 28° C. for a period of time. Finally stop the reaction by adding 30 μL of stop buffer and collect data on Caliper to obtain the IC50.
# Sequence of IRAK4 (Q9NWZ3 whole entry): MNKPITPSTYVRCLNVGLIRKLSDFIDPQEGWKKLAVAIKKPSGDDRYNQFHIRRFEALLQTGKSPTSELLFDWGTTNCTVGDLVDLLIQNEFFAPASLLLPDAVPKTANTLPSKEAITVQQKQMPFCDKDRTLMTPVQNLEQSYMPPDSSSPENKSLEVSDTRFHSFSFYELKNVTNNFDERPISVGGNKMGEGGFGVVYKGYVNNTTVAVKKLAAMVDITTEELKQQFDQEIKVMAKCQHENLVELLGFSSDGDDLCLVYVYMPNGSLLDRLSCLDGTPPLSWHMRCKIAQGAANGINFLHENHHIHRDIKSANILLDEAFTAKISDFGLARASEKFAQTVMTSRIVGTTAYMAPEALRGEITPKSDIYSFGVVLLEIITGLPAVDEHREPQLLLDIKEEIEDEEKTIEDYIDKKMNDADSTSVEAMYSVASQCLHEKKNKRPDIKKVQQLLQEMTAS
"IC50 (IRAK4 kinase, 10 μM ATP)",Structure (SMILES),IC50,"activity, times better than that of the positive control compound CA4948"
243 nM,Cn1cc(-c2cccc(NC(=O)c3cc4c(nc3O)OC(C)(C)C4)n2)cn1 [Compound B34],,
75 nM,"CN1CCC(Oc2nc3c(cc2C(=O)Nc2cccc(-c4cnn(C)c4)n2)CC(C)(C)O3)C1 (stereo not drawn) [Compound B21, 2,2-Dimethyl-N-(6-(1-methyl-1H-pyrazol-4-yl)pyridin-2-yl)-6-((1-methylpyrrolidin-3-yl)oxy)-2,3-dihydrofuro[2,3-b]pyridine-5-carboxamide]",,
,"COC1CCN(c2nc3nc(N4CCNCC4)oc3cc2C(=O)Nc2cccc(-c3cnn(C)c3)n2)CC1 [Compound A51, 5-(4-Methoxypiperidin-1-yl)-N-(6-(1-methyl-1H-pyrazol-4-yl)pyridin-2-yl)-2-(piperazin-1-yl)oxazolo[4,5-b]pyridine-6-carboxamide Hydrochloride]",7 nM,
5.1 nM,"COC1CCN(c2nc3nc(N4CCN(C)CC4)oc3cc2C(=O)Nc2cccc(-c3cnn(C)c3)n2)CC1 [Compound A52, 5-(4-Methoxypiperidin-1-yl)-N-(6-(1-methyl-1H-pyrazol-4-yl)pyridin-2-yl)-2-(4-methylpiperazin-1-yl)oxazolo[4,5-b]pyridine-6-carboxamide]",,
188 nM,"Cn1cc(-c2cccc(NC(=O)c3cc4oc(N5CCOCC5)nc4nc3N3CC4(CC(O)C4)C3)n2)cn1 [Compound A22, 5-(6-Hydroxy-2-azaspiro[3.3]heptan-2-yl)-N-(6-(1-methyl-1H-pyrazol-4-yl)pyridin-2-yl)-2-morpholinooxazolo[4,5-b]pyridine-6-carboxamide]",,
31 nM,"Cn1cc(-c2cccc(NC(=O)c3cc4c(nc3N3CCN(CCO)CC3)OC(C)(C)C4)n2)cn1 [Compound B3, 6-(4-(2-Hydroxyethyl)piperazin-1-yl)-2,2-dimethyl-N-(6-(1-methyl-1H-pyrazol-4-yl)pyridin-2-yl)-2,3-dihydrofuro[2,3-b]pyridine-5-carboxamide]",,
11 nM,"Cn1cc(-c2cccc(NC(=O)c3cc4c(nc3OCC3CC3)OC(C)(C)C4)n2)cn1 [Compound B24, 6-(Cyclopropylmethoxy)-2,2-dimethyl-N-(6-(1-methyl-1H-pyrazol-4-yl)pyridin-2-yl)-2,3-dihydrofuro[2,3-b]pyridine-5-carboxamide]",,
5.6 nM,"Cn1cc(-c2cccc(NC(=O)c3cc4c(nc3OC3CCCC3)OC(C)(C)C4)n2)cn1 [Compound B15, 6-(Cyclopentyloxy)-2,2-dimethyl-N-(6-(1-methyl-1H-pyrazol-4-yl)pyridin-2-yl)-2,3-dihydrofuro[2,3-b]pyridine-5-carboxamide]",,
87 nM,"N#Cc1cccc(NC(=O)c2cc3oc(N4CCOCC4)nc3nc2N2CCC(O)CC2)n1 [Compound A42, N-(6-Cyanopyridin-2-yl)-5-(4-hydroxypiperidin-1-yl)-2-morpholinooxazolo[4,5-b]pyridine-6-carboxamide]",,
7.8 nM,"Cn1cc(-c2cccc(NC(=O)c3cc4oc(N5CCNCC5)nc4nc3N3CCC(C)(O)CC3)n2)cn1 [Compound A56, 5-(4-Hydroxy-4-methylpiperidin-1-yl)-N-(6-(1-methyl-1H-pyrazol-4-yl)pyridin-2-yl)-2-(piperazin-1-yl)oxazolo[4,5-b]pyridine-6-carboxamide]",,
462 nM,"CN1CCN(c2nc3nc(N4CCOCC4)oc3cc2C(=O)Nc2cccc(-c3cnn(C)c3)n2)CC1CO (stereo not drawn) [Compound A37, 5-(3-(Hydroxymethyl)-4-methylpiperazin-1-yl)-N-(6-(1-methyl-1H-pyrazol-4-yl)pyridin-2-yl)-2-morpholinooxazolo[4,5-b]pyridine-6-carboxamide Hydrochloride]",,
4.9 nM,"CN1CCN(c2nc3nc(N4CCC5(CCO5)CC4)c(C(=O)Nc4cccc(-c5cnn(C)c5)n4)cc3o2)CC1 [Compound A58, N-(6-(1-Methyl-1H-pyrazol-4-yl)pyridin-2-yl)-2-(4-methylpiperazin-1-yl)-5-(1-oxa-7-azaspiro[3.5]nonan-7-yl)oxazolo[4,5-b]pyridine-6-carboxamide]",,
17 nM,"Cl.Cn1cc(-c2cccc(NC(=O)c3cc4oc(N5CCOCC5)nc4nc3N3CCN(CCO)CC3)n2)cn1 [Compound A36, 5-(4-(2-Hydroxyethyl)piperazin-1-yl)-N-(6-(1-methyl-1H-pyrazol-4-yl)pyridin-2-yl)-2-morpholinooxazolo[4,5-b]pyridine-6-carboxamide Hydrochloride]",,more than 5 times
11 nM,"Cn1cc(-c2cccc(NC(=O)c3cc4c(nc3OC3COC3)OC(C)(C)C4)n2)cn1 [Compound B16, 2,2-Dimethyl-N-(6-(1-methyl-1H-pyrazol-4-yl)pyridin-2-yl)-6-(oxetan-3-yloxy)-2,3-dihydrofuro[2,3-b]pyridine-5-carboxamide]",,
31 nM,"Cn1cc(-c2cccc(NC(=O)c3cc4oc(N5CCOCC5)nc4nc3N3CCCC(O)C3)n2)cn1 (stereo not drawn) [Compound A16, 5-(3-Hydroxypiperidin-1-yl)-N-(6-(1-methyl-1H-pyrazol-4-yl)pyridin-2-yl)-2-morpholinooxazolo[4,5-b]pyridine-6-carboxamide]",,
194 nM,"Cn1cc(-c2cccc(NC(=O)c3cc4oc(N5CCOCC5)nc4nc3N3CC[C@H](O)C3)n2)cn1 [Compound A6, (S)-5-(3-hydroxypyrrolidin-1-yl)-N-(6-(1-methyl-1H-pyrazol-4-yl)pyridin-2-yl)-2-morpholinooxazolo[4,5-b]pyridine-6-carboxamide]",,
5.9 nM,"Cn1cc(-c2cccc(NC(=O)c3cc4oc(N5CCNCC5)nc4nc3N3CCC4(CCO4)CC3)n2)cn1 [Compound A55, N-(6-(1-Methyl-1H-pyrazol-4-yl)pyridin-2-yl)-2-(piperazin-1-yl)-5-(1-oxa-7-azaspiro[3.5]nonan-7-yl)oxazolo[4,5-b]pyridine-6-carboxamide]",,
221 nM,"Cn1cc(-c2cccc(NC(=O)c3cc4oc(N5CCOCC5)nc4nc3N3CC4(CCOC4)C3)n2)cn1 [Compound A18, N-(6-(1-Methyl-1H-pyrazol-4-yl)pyridin-2-yl)-2-morpholino-5-(6-oxa-2-azaspiro[3.4]octan-2-yl)oxazolo[4,5-b]pyridine-6-carboxamide]",,
,"CC1(C)Cc2cc(C(=O)Nc3cccn(C4CC4)c3=O)c(N3CCC(O)CC3)nc2O1 [Compound B10, N-(1-Cyclopropyl-2-oxo-1,2-dihydropyridin-3-yl)-6-(4-hydroxypiperidin-1-yl)-2,2-dimethyl-2,3-dihydrofuro[2,3-b]pyridine-5-carboxamide]",479 nM,
11 nM,"Cn1cc(-c2cccc(NC(=O)c3cc4c(nc3OC3CCOCC3)OC(C)(C)C4)n2)cn1 [Compound B23, 2,2-Dimethyl-N-(6-(1-methyl-1H-pyrazol-4-yl)pyridin-2-yl)-6-((tetrahydro-2H-pyran-4-yl)oxy)-2,3-dihydrofuro[2,3-b]pyridine-5-carboxamide]",,
354 nM,"Cn1cc(-c2cccc(NC(=O)c3cc4c(nc3OC3CCNC3)OC(C)(C)C4)n2)cn1 (stereo not drawn) [Compound B22, 2,2-Dimethyl-N-(6-(1-methyl-1H-pyrazol-4-yl)pyridin-2-yl)-6-(pyrrolidin-3-yloxy)-2,3-dihydrofuro[2,3-b]pyridine-5-carboxamide]",,
,"Cn1cc(-c2cccc(NC(=O)c3cc4oc(N5CCOCC5)nc4nc3N3CCC4(CCO4)CC3)n2)cn1 [Compound A26, N-(6-(1-Methyl-1H-pyrazol-4-yl)pyridin-2-yl)-2-morpholino-5-(1-oxa-7-azaspiro[3.5]nonan-7-yl)oxazolo[4,5-b]pyridine-6-carboxamide]",4.2 nM,more than 25 times
